In US20080145858A1, “DETECTION AND IDENTIFICATION OF TOXICANTS BY MEASUREMENT OF GENE […]” (priority 2003, published 2008):

Test system: Xenopus laevis embryos
Experiment: Embryonic morphology after PMA treatment
Assay type: in vivo
Protocol: Embryos were sorted for successful cleavage to 2 cells (1.5 hours after fertilization), split into groups for subsequent treatment (triplicate treatments per each experimental group) and visually monitored for normal embryonic morphology. Rates of abnormal morphology were recorded for each group. Embryos at stage 8 were obtained after incubation of the fertilized embryos at 23° C. for 5 hours. PMA (100 ng/ml) or DMSO (0.01%, solvent used to dissolve PMA) was added to the embryos 2 hours after fertilization. […] Embryos at stage 15 were obtained after incubation of the fertilized embryos at 18° C. for 30 hours (the condition produced stage 15 embryos identical to embryos obtained at 23° C. for 10 hours). PMA or DMSO was added to the embryos 21 hours after fertilization.

## CCCCCCCCCCCCCC(=O)O[C@@H]1[C@@H](C)[C@@]2(O)[C@@H](C=C(CO)C[C@]3(O)C(=O)C(C)=C[C@@H]23)[C@@H]2C(C)(C)[C@]12OC(C)=O [PMA, phorbol 12-myristate 12-acetate]
100 ng/ml added 2 hours after fertilization, 23° C. for 5 hours, untreated progressed to blastula
  embryo morphology / developmental stage reached: remained in a pre-blastula stage
Added 21 hours after fertilization, 18° C. for 30 hours, untreated showed typical neurula
  embryo morphology / developmental stage reached: in a pre-neurula stage
